# Reference: US4011307A, “Production of ^203 Pb-tris-hydroxymethyl amino methane” (The United States of America as represented by the United …, priority 1976, dated 1977)
# Key:
# melanomas, tumors = test: Localization / tissue distribution study in tumor bearing animals; assay type: in vivo, mice and hamsters
# Method: The ^203 Pb-tris as described herein was injected in a relatively large number of mice and hamsters which were tumor bearing animals.
# [1] = Toxicity effects from the presence of lead in the blood stream; assay type: in vivo; settings: near carrier-free lead-203 complexed with tris
# [2] = system: tissues of hamsters with eye melanoma; test: Distribution of carrier-free lead-203 tris in tissue at various times; assay type: in vivo, hamster
# Method: The ^203 Pb-tris as described herein was injected in a relatively large number of mice and hamsters which were tumor bearing animals. […]
# tumors = settings: previous attempts reported; cited from earlier work
substance,measurement,setting,value
Lead-203 tris-hydroxymethyl aminomethane,Ability to localize in melanomas,"melanomas, tumors; extensive studies","has the ability to localize in melanomas, especially those of the eye"
same,Uptake of ^203 Pb by the tumors,"melanomas, tumors; tumor bearing mice and hamsters, injected, tissue distribution",selective uptake by the tumors
same,Toxicity effects from the presence of lead in the blood stream,[1],avoided or minimized
same,"Distribution, Blood","[2]; Time 1, 60 min",3.870 Percent Uptake per Gram of Tis
same,"Distribution, Blood","[2]; Time 3, 180 min",3.635 Percent Uptake per Gram of Tis
same,"Distribution, Blood","[2]; Time 6, 360 min",5.847 Percent Uptake per Gram of Tis
same,"Distribution, Blood","[2]; Time 24, 1440 min",3.007 Percent Uptake per Gram of Tis
same,"Distribution, Blood","[2]; Time 72, 4320 min",3.792 Percent Uptake per Gram of Tis
same,"Distribution, Blood","[2]; Time 144, 8640 min",0.852 Percent Uptake per Gram of Tis
same,"Distribution, Bone","[2]; Time 1, 60 min",3.977 Percent Uptake per Gram of Tis
same,"Distribution, Bone","[2]; Time 3, 180 min",3.991 Percent Uptake per Gram of Tis
same,"Distribution, Bone","[2]; Time 6, 360 min",5.320 Percent Uptake per Gram of Tis
same,"Distribution, Bone","[2]; Time 24, 1440 min",5.342 Percent Uptake per Gram of Tis
same,"Distribution, Bone","[2]; Time 72, 4320 min",9.761 Percent Uptake per Gram of Tis
same,"Distribution, Bone","[2]; Time 144, 8640 min",5.757 Percent Uptake per Gram of Tis
same,"Distribution, Choroid","[2]; Time 1, 60 min",1.109 Percent Uptake per Gram of Tis
same,"Distribution, Choroid","[2]; Time 3, 180 min",0.950 Percent Uptake per Gram of Tis
same,"Distribution, Choroid","[2]; Time 6, 360 min",0.337 Percent Uptake per Gram of Tis
same,"Distribution, Choroid","[2]; Time 24, 1440 min",0.361 Percent Uptake per Gram of Tis
same,"Distribution, Choroid","[2]; Time 72, * 4 animals, 4320 min",0.127 Percent Uptake per Gram of Tis
same,"Distribution, Choroid","[2]; Time 144, 8640 min",0.131 Percent Uptake per Gram of Tis
same,"Distribution, Cornea",[2]; Time 1,0.834 Percent Uptake per Gram of Tis
same,"Distribution, Cornea",[2]; Time 3,0.173 Percent Uptake per Gram of Tis
same,"Distribution, Cornea",[2]; Time 6,0.891 Percent Uptake per Gram of Tis
same,"Distribution, Cornea",[2]; Time 24,0.200 Percent Uptake per Gram of Tis
same,"Distribution, Cornea","[2]; Time 72, * 4 animals",0.084 Percent Uptake per Gram of Tis
same,"Distribution, Cornea",[2]; Time 144,0.062 Percent Uptake per Gram of Tis
same,"Distribution, Gonads","[2]; Time 1, 60 min",2.076 Percent Uptake per Gram of Tis
same,"Distribution, Gonads","[2]; Time 3, 180 min",0.238 Percent Uptake per Gram of Tis
same,"Distribution, Gonads","[2]; Time 6, 360 min",0.663 Percent Uptake per Gram of Tis
same,"Distribution, Gonads","[2]; Time 24, 1440 min",0.164 Percent Uptake per Gram of Tis
same,"Distribution, Gonads","[2]; Time 144, 8640 min",0.079 Percent Uptake per Gram of Tis
same,"Distribution, Intestines","[2]; Time 1, 60 min",0.841 Percent Uptake per Gram of Tis
same,"Distribution, Intestines","[2]; Time 3, 180 min",0.653 Percent Uptake per Gram of Tis
same,"Distribution, Intestines","[2]; Time 6, 360 min",1.593 Percent Uptake per Gram of Tis
same,"Distribution, Intestines","[2]; Time 24, 1440 min",1.664 Percent Uptake per Gram of Tis
same,"Distribution, Intestines","[2]; Time 72, * 4 animals, 4320 min",2.064 Percent Uptake per Gram of Tis
same,"Distribution, Intestines","[2]; Time 144, 8640 min",0.217 Percent Uptake per Gram of Tis
same,"Distribution, Kidney","[2]; Time 1, 60 min",25.32 Percent Uptake per Gram of Tis
same,"Distribution, Kidney","[2]; Time 3, 180 min",18.156 Percent Uptake per Gram of Tis
same,"Distribution, Kidney","[2]; Time 6, 360 min",17.703 Percent Uptake per Gram of Tis
same,"Distribution, Kidney","[2]; Time 24, 1440 min",10.508 Percent Uptake per Gram of Tis
same,"Distribution, Kidney","[2]; Time 72, 4320 min",17.443 Percent Uptake per Gram of Tis
same,"Distribution, Kidney","[2]; Time 144, 8640 min",3.904 Percent Uptake per Gram of Tis
same,"Distribution, Lens","[2]; Time 1, 60 min",0.017 Percent Uptake per Gram of Tis
same,"Distribution, Lens","[2]; Time 3, 180 min",0.023 Percent Uptake per Gram of Tis
same,"Distribution, Lens","[2]; Time 6, 360 min",0.021 Percent Uptake per Gram of Tis
same,"Distribution, Lens","[2]; Time 24, 1440 min",0.005 Percent Uptake per Gram of Tis
same,"Distribution, Lens","[2]; Time 72, * 4 animals, 4320 min",0.006 Percent Uptake per Gram of Tis
same,"Distribution, Lens","[2]; Time 144, 8640 min",0.005 Percent Uptake per Gram of Tis
same,"Distribution, Liver","[2]; Time 1, 60 min",5.463 Percent Uptake per Gram of Tis
same,"Distribution, Liver","[2]; Time 3, 180 min",4.273 Percent Uptake per Gram of Tis
same,"Distribution, Liver","[2]; Time 6, 360 min",7.188 Percent Uptake per Gram of Tis
same,"Distribution, Liver","[2]; Time 24, 1440 min",3.729 Percent Uptake per Gram of Tis
same,"Distribution, Liver","[2]; Time 72, 4320 min",4.841 Percent Uptake per Gram of Tis
same,"Distribution, Liver","[2]; Time 144, 8640 min",2.331 Percent Uptake per Gram of Tis
same,"Distribution, Melanoma-Eye","[2]; Time 1, 60 min",1.048 Percent Uptake per Gram of Tis
same,"Distribution, Melanoma-Eye","[2]; Time 3, 180 min",0.976 Percent Uptake per Gram of Tis
same,"Distribution, Melanoma-Eye","[2]; Time 6, 360 min",1.609 Percent Uptake per Gram of Tis
same,"Distribution, Melanoma-Eye","[2]; Time 24, 1440 min",1.314 Percent Uptake per Gram of Tis
same,"Distribution, Melanoma-Eye","[2]; Time 72, * 4 animals, 4320 min",0.724 Percent Uptake per Gram of Tis
same,"Distribution, Melanoma-Eye","[2]; Time 144, 8640 min",0.821 Percent Uptake per Gram of Tis
same,"Distribution, Melanoma-Skin","[2]; Time 1, 60 min",1.095 Percent Uptake per Gram of Tis
same,"Distribution, Melanoma-Skin","[2]; Time 3, 180 min",1.051 Percent Uptake per Gram of Tis
same,"Distribution, Melanoma-Skin","[2]; Time 6, 360 min",1.209 Percent Uptake per Gram of Tis
same,"Distribution, Melanoma-Skin","[2]; Time 24, 1440 min",0.845 Percent Uptake per Gram of Tis
same,"Distribution, Melanoma-Skin","[2]; Time 72, 4320 min",1.010 Percent Uptake per Gram of Tis
same,"Distribution, Melanoma-Skin","[2]; Time 144, 8640 min",0.749 Percent Uptake per Gram of Tis
same,"Distribution, Muscle",[2]; Time 1,0.159 Percent Uptake per Gram of Tis
same,"Distribution, Muscle",[2]; Time 3,0.100 Percent Uptake per Gram of Tis
same,"Distribution, Muscle",[2]; Time 6,0.090 Percent Uptake per Gram of Tis
same,"Distribution, Muscle",[2]; Time 24,0.026 Percent Uptake per Gram of Tis
same,"Distribution, Muscle",[2]; Time 72,0.041 Percent Uptake per Gram of Tis
same,"Distribution, Muscle","[2]; Time 144, 8640 min",0.027 Percent Uptake per Gram of Tis
same,"Distribution, Normal-Eye","[2]; Time 1, 60 min",0.200 Percent Uptake per Gram of Tis
same,"Distribution, Normal-Eye","[2]; Time 3, 180 min",0.086 Percent Uptake per Gram of Tis
same,"Distribution, Normal-Eye","[2]; Time 6, 360 min",0.111 Percent Uptake per Gram of Tis
same,"Distribution, Normal-Eye","[2]; Time 24, 1440 min",0.054 Percent Uptake per Gram of Tis
same,"Distribution, Normal-Eye","[2]; Time 72, 4320 min",0.084 Percent Uptake per Gram of Tis
same,"Distribution, Normal-Eye","[2]; Time 144, 8640 min",0.047 Percent Uptake per Gram of Tis
same,"Distribution, Normal-Skin","[2]; Time 1, 60 min",0.401 Percent Uptake per Gram of Tis
same,"Distribution, Normal-Skin","[2]; Time 3, 180 min",0.256 Percent Uptake per Gram of Tis
same,"Distribution, Normal-Skin","[2]; Time 6, 360 min",0.286 Percent Uptake per Gram of Tis
same,"Distribution, Normal-Skin","[2]; Time 24, 1440 min",0.090 Percent Uptake per Gram of Tis
same,"Distribution, Normal-Skin","[2]; Time 72, 4320 min",0.122 Percent Uptake per Gram of Tis
same,"Distribution, Normal-Skin","[2]; Time 144, 8640 min",0.071 Percent Uptake per Gram of Tis
same,"Distribution, Retina","[2]; Time 1, 60 min",0.169 Percent Uptake per Gram of Tis
same,"Distribution, Retina","[2]; Time 3, 180 min",0.074 Percent Uptake per Gram of Tis
same,"Distribution, Retina","[2]; Time 6, 360 min",0.251 Percent Uptake per Gram of Tis
same,"Distribution, Retina","[2]; Time 24, 1440 min",0.206 Percent Uptake per Gram of Tis
same,"Distribution, Retina","[2]; Time 72, * 4 animals, 4320 min",0.091 Percent Uptake per Gram of Tis
same,"Distribution, Retina","[2]; Time 144, 8640 min",0.127 Percent Uptake per Gram of Tis
same,"Distribution, Vitreous","[2]; Time 1, 60 min",0.031 Percent Uptake per Gram of Tis
same,"Distribution, Vitreous","[2]; Time 3, 180 min",0.028 Percent Uptake per Gram of Tis
same,"Distribution, Vitreous","[2]; Time 6, 360 min",0.036 Percent Uptake per Gram of Tis
same,"Distribution, Vitreous","[2]; Time 24, 1440 min",0.031 Percent Uptake per Gram of Tis
same,"Distribution, Vitreous","[2]; Time 72, * 4 animals, 4320 min",0.014 Percent Uptake per Gram of Tis
same,"Distribution, Vitreous","[2]; Time 144, 8640 min",0.018 Percent Uptake per Gram of Tis
lead,Outcome of previous attempts to use lead as agent for the treatment of tumors,tumors,apparently failed to produce useful results due to the toxicity of lead in the bloodstream
